Assay results as given in EP0659743A1, “Piperidine derivatives as inhibitors of platelet aggregation and their preparation” (HOECHST AKTIENGESELLSCHAFT, priority 1993, dated 1995).

Legend:
Human Platelet = assay: In-vitro Human Platelet Aggregation in PRP (ADP induced); type: cell-based; conditions: PRP (platelet rich plasma), 37°C, read-out: IC₅₀(µM) Inhibitor of ADP induced Platelet aggregation
Experimental: The compounds of the above invention are tested for platelet binding inhibitory activity in the following assays: • 1. In-vitro Human Platelet Aggregation in PRP: Blood is drawn from healthy human volunteers who had no medication for at least two weeks. 8.4 ml of venous blood are collected into 1.4 ml of ACD solution (citric acid 0.8 %, sodium citrate 2.2 %, hirudin 0.6 u/ml) and centrifuged for 10 min. at 120 g. The platelet rich plasma (PRP) is carefully removed and remaining blood is further centrifuged at 1200 g for 15 min. to separate platelet poor plasma (PPP). For aggregation studies the aggregometer is adjusted by using PPP and PRP. ADP is then added tp PRP which is kept at 37°C and stirred constantly at 1000 rpm. The aggregation of platelets causes an increase in transparency of PRP which is recorded. • 2. Preparation of Gel Filtered Platelets (GFP): Platelet rich plasma (PRP) is collected as mentioned in the above procedure. Its pH is adjusted to 6.5 with ACD solution and then centrifuged at 285 g for 20 min.. The resulting pellet is resuspended in Tyrode's buffer (NaCl, 7.01 g/l; KCl, 0194 g/l; NaHCO₃, 1.01 g/l; Glucose, 1.09 g/l; NaH₂PO₄, 0.061 g/l; Hepes, 2.380 g/l; albumin, 3.5 g/l) and the platelet suspension is applied on to a ^RSepharose CL 20 column. Equilibrium and elution is done with Tyrode's buffer. Platelets are recovered in the void volume. Final platelet concentration is adjusted to 4 X 108 platelets/ml. For the aggregation studies, GFP in Tyrodes buffer is mixed with calcium chloride (final concentration […]) and an agonist (ADP or Thrombin) with or without test compound (1 to 300 µM) and incubated at 37°C for 3 min.. After the addition of fibrinogen (final conc. 1 mg/ml) the aggregation is recorded.
Aggregation maximum for PRP or GFP without any inhibitor is taken as 100 % aggregation and is compared with aggregation maximum of RPR or GFP incubated with the test compound.

[1] = tested on: Gel Filtered Platelets (GFP); assay: ADP induced aggregation of Gel Filtered Platelets (GFP); type: cell-based; conditions: Homo sapiens, Platelet, 0.05 h, GFP (gel filtered platelets) in Tyrode's buffer, fibrinogen 1 mg/ml, 37°C for 3 min, read-out: IC₅₀(µM) Inhibitor of ADP induced Platelet aggregation
Experimental: The compounds of the above invention are tested for platelet binding inhibitory activity in the following assays: • 1. In-vitro Human Platelet Aggregation in PRP: Blood is drawn from healthy human volunteers who had no medication for at least two weeks. 8.4 ml of venous blood are collected into 1.4 ml of ACD solution (citric acid 0.8 %, sodium citrate 2.2 %, hirudin 0.6 u/ml) and centrifuged for 10 min. at 120 g. The platelet rich plasma (PRP) is carefully removed and remaining blood is further centrifuged at 1200 g for 15 min. to separate platelet poor plasma (PPP). For aggregation studies the aggregometer is adjusted by using PPP and PRP. ADP is then added tp PRP which is kept at 37°C and stirred constantly at 1000 rpm. The aggregation of platelets causes an increase in transparency of PRP which is recorded. • 2. Preparation of Gel Filtered Platelets (GFP): Platelet rich plasma (PRP) is collected as mentioned in the above procedure. Its pH is adjusted to 6.5 with ACD solution and then centrifuged at 285 g for 20 min.. The resulting pellet is resuspended in Tyrode's buffer (NaCl, 7.01 g/l; KCl, 0194 g/l; NaHCO₃, 1.01 g/l; Glucose, 1.09 g/l; NaH₂PO₄, 0.061 g/l; Hepes, 2.380 g/l; albumin, 3.5 g/l) and the platelet suspension is applied on to a ^RSepharose CL 20 column. […] After the addition of fibrinogen (final conc. 1 mg/ml) the aggregation is recorded. […]

SMILES	IC50 (Human Platelet)	IC50 [1]
COC(=O)COc1ccc(C=CC(=O)c2c(OC)cc(OC)c(C3CCN(C)CC3O)c2O)cc1 (centres unmarked) [Compound 2]	5.3 µM	0.53 µM
COC(=O)COc1ccc(C=CC(=O)c2c(OC)cc(OC)c(C3CCN(C)CC3)c2O)cc1 [Compound 6]	17 µM	–
COC(=O)COc1ccc(CCC(=O)c2c(OC)cc(OC)c(C3CCN(C)CC3)c2O)cc1 [Compound 7]	8 µM	2 µM
